Literature values in patent US20050003341A1, “Drug discovery assays based on the biology of atherosclerosis, cancer, and alopecia” (priority 2003, published 2005).
Read-outs that look alike come from different tables or passages of the source.

Legend:
[1] = system: Moloney murine leukemia virus (MMuLV); Rous sarcoma virus (RSV); conditions: chick embryo fibroblasts
ACE [2] = system: ACE
ACE [3] = conditions: 5 or 10 mg/day vs placebo, 4 years
ACE [4] = system: ACE; remark: listed apart in the source
ACE [5] = conditions: zofenopril 0.05 or 1, captopril 5, enalapril 0.5 mg/kg/day
ACE [6] = conditions: 5 mg/day vs placebo, 4 years
TF [7] = conditions: mononuclear leukocytes exposed to endotoxin
TF [8] = conditions: cultured monocytes
ACE [9] = conditions: after 6 weeks
papilla cells = conditions: 14 days; testosterone 345 nM, DHT 345 mM as printed
AR mRNA [10] = conditions: 50 μg/ml, 4 hours
TF mRNA = conditions: obese mice, 10 to 20 weeks of age
TF [11] = conditions: THP-1
TF [12] = conditions: Western blotting; untreated smokers 2.3±0.7
leukocytes [13] = conditions: 0.1 and 1 mM, similar in vitro assay
leukocytes [14] = conditions: 5-20 mg/kg/day, oral
TF antigen = conditions: starting on day 3, significant on day 28
AR mRNA [15] = conditions: LNCaP cells (Lin 2001)
CD40 = conditions: concentration- and time-dependent

Molecule: C/C=C/C/C=C/CCC(=O)[C@H]1O[C@H]1C(N)=O [cerulenin]
- Rous sarcoma virus (RSV) production [1]: inhibited

Molecule: CCOC(=O)[C@H](CCc1ccccc1)N[C@@H](C)C(=O)N1[C@H](C(=O)O)C[C@@H]2CCC[C@@H]21 [ramipril]
- rate of death from cardiovascular causes (ACE [2]; 10 mg/day, 4.5 years, placebo 8.1%): 6.1%
- rate of cardiac arrest (ACE [2]; placebo 1.3%): 0.8%
- rate of stroke (ACE [2]; placebo 4.9%): 3.4%
- rate of complications related to diabetes (ACE [2]; placebo 7.6%): 6.4%
- rate of heart failure (ACE [2]; placebo 11.6%): 9.1%
- rate of death from any cause (ACE [2]; placebo 12.2%): 10.4%
- rate of myocardial infarction (ACE [2]; placebo 12.3%): 9.9%
- rate of revascularization procedures (ACE [2]; placebo 18.8%): 16.3%
- RR, cardiac arrest (ACE [2]; vs placebo): 0.62
- RR, complications related to diabetes (ACE [2]; vs placebo): 0.84
- RR, death from any cause (ACE [2]; vs placebo): 0.84
- RR, death from cardiovascular causes (ACE [2]; vs placebo): 0.74
- RR, heart failure (ACE [2]; vs placebo): 0.77
- RR, myocardial infarction (ACE [2]; vs placebo): 0.80
- RR, revascularization procedures (ACE [2]; vs placebo): 0.85
- RR, stroke (ACE [2]; vs placebo): 0.68
- changes in thickness of the common carotid artery wall, or carotid plaque height (ACE [3]): no significant difference
- progression slope of the mean maximum carotid intimal medial thickness (IMT) (ACE [4]; 10 mg/day, placebo 0.0217±0.0027, p=0.0033): 0.0137±0.0024 mm/year
- decrease in progression of carotid intima media thickness (ACE [4]; at 4.5 years): 0.008 mm per year

Molecule: CCOC(=O)[C@H](CCc1ccccc1)N[C@@H](C)C(=O)N1CCC[C@H]1C(=O)O [enalapril]
- total lesion area compared to placebo (ACE [5]): no significant decrease
- changes in mean absolute diameter, minimum absolute diameter, percent diameter stenosis (ACE [6]): no significant difference

Molecule: C[C@H](CS)C(=O)N1CCC[C@H]1C(=O)O [captopril]
- increase in TF mRNA (TF [7]): inhibited
- TF antigen and mRNA (TF [8]): decreased
- total lesion area compared to placebo (ACE [5]): significantly decreased
- cell size of macrophage derived foam cells (hamsters; controls 130±5): did not change
- heart rate (hamsters; controls 376±6): 348+6 beats/min
- decrease in fatty streak area (hamsters; p=0.092 pravastatin, p=0.056 captopril): 35%
- number of subendothelial macrophage derived foam cells (ACE [9]; week 4: 87±9, p<0.05): 52±9 cell/mm^2
- average size of a foam cell (ACE [9]; week 4: 113±8, p<0.05): 89±5 μm^2
- area of fatty streak (ACE [9]; week 4: 125±18, p<0.05): 55±12 μm2×1,000
- area of extracellular lipid particles (ACE [9]; week 4: 144±27, not significant): 157±36 μm2×1,000

Molecule: C[C@]12CC[C@H]3[C@@H](CCC4=CC(=O)CC[C@@]43C)[C@@H]1CC[C@@H]2O [Testosterone, testosterone]
- ERK phosphorylation (ERK; a variety of cells, cited studies): increase
- papilla cell proliferation (papilla cells): significantly decreased

Molecule: C[C@@H]1C[C@@H]([C@H](O)CC2CC(=O)NC(=O)C2)C(=O)[C@@H](C)C1 [cycloheximide]
- increase in AR mRNA (AR mRNA [10]): 1.7 ± 0.4 fold

Molecule: CCOC(=O)[C@H](CCc1ccccc1)N[C@H]1CS[C@H](c2cccs2)CN(CC(=O)O)C1=O [temocapril]
- increase in TF mRNA (TF mRNA): attenuated

Molecule: CC(=O)Oc1ccccc1C(=O)O [aspirin, Acetylsalicylic Acid]
- LPS-induced translocation of c-Rel/p65 (TF [11]): inhibited
- increase in TF concentration compared to non-smoker mice (TF [12]): 1.3±0.17 fold
- migration of human lymphocytes (leukocytes [13]): stimulated migration
- increase in leukocyte migration relative to control values (leukocytes [14]): 20-70%

Molecule: CCCCc1nc(Cl)c(CO)n1Cc1ccc(-c2ccccc2-c2nn[nH]n2)cc1 [losartan]
- effect on plasma TF antigen levels (TF antigen): negative effect

Molecule: IL-6: interleukin 6
- ERK phosphorylation (ERK; LNCaP cells (Chen T 1999)): increased
- AR mRNA (AR mRNA [15]): decreased

B1: CD40L: ligand of CD40, native or recombinant human (protein, UniProt P29965 113-261, looked up)
CD40 ligand, soluble form: MQKGDQNPQIAAHVISEASSKTTSVLQWAEKGYYTMSNNLVTLENGKQLTVKRQGLYYIYAQVTFCSNREASSQAPFIASLCLKSPGRFERILLRAANTHSSAKPCGQQSIHLGGVFELQPGASVFVNVTDPSQVSHGTGFTSFGLLKL
- TF expression on the surface of cultured human vascular SMC (CD40): transient increase
